The values that follow come from ChEMBL document CHEMBL5046280, “Discovery of Small-Molecule Inhibitors of the PD-1/PD-L1 Axis That Promote PD-L1 Internalization and Degradation” (J Med Chem, 2022).

Each structure is given as a SMILES string. The source made the active and inactive calls. The calls are words filed in the database; no cut-off is given here. Where only a bound is given, the exact number is not on record here.

Series [1] has as its target Programmed cell death protein 1/Programmed cell death 1 ligand 1 (Homo sapiens, UniProt Q9NZQ7). The experiment in a line: Inhibition of PD-1/PD-L1 (unknown origin) interaction pre-incubated for 15 mins and measured after 90 mins by TR-FRET assay. Type of series: protein-complex assay.
Series [2] has as its target Programmed cell death 1 ligand 1 (Homo sapiens, UniProt Q9NZQ7). The series is described as follows: Binding affinity to human PD-L1 assessed as dissociation constant by micro-scale thermophoresis analysis.
Series [3] has as its target Programmed cell death 1 ligand 1 (Mus musculus, UniProt Q9EP73). The experiment in a line: Binding affinity to mouse PD-L1 assessed as dissociation constant by micro-scale thermophoresis analysis.
A further series has as its system MDA-MB-231. The series is described as follows: Antitumor immunity against human MDA-MB-231 cells co-cultured with CD3/CD28/CD2 T cell activator stimulated human PMBC assessed as tumor cell viability measuring lactate dehydrogenase release measured for 14 hrs by PBMC killing assay relative to control. Type of series: functional, cell-based.
In series [4] the test system is CT26. The experiment in a line: Antitumor activity against po dosed mouse CT26 cells implanted in BALB/c mouse assessed as tumor growth delay treated once daily for 2 weeks. Type of series: functional, organism-based. The following applies: dose 40-160 mg/kg.
The nature of series [5]: Toxicity in BALB/c mouse harbouring mouse CT26 cells assessed as change in body weight at 40 to 120 mg/kg, po administered once daily for 2 weeks. Particulars: in vivo, 336 h, dose 40-120 mg/kg. Format: organism-based.
A short description of series [6]: Toxicity in BALB/c mouse harbouring mouse CT26 cells assessed as mortality at 40 to 120 mg/kg, po administered once daily for 2 weeks. Format: organism-based. Particulars: in vivo, 336 h, dose 40-120 mg/kg.
For series [7], the system named is CT26. The experiment in a line: Antitumor activity against mouse CT26 cells implanted in BALB/c mouse assessed as reduction in tumor weight at 40 mg/kg, po administered once daily for 2 weeks. Format: functional. On the set-up: scale not given: the % may be the effect or the level left.
For series [8], the system named is CT26. The experiment in a line: Antitumor activity against mouse CT26 cells implanted in BALB/c mouse assessed as reduction in tumor weight at 80 mg/kg, po administered once daily for 2 weeks. Format: functional. Also noted: scale not given: the % may be the effect or the level left.
Series [9] has as its system CT26. The series is described as follows: Antitumor activity against mouse CT26 cells implanted in BALB/c mouse assessed as reduction in tumor weight at 160 mg/kg, po administered once daily for 2 weeks. Type of series: functional. On the set-up: scale not given: the % may be the effect or the level left.
Series [10] has as its system CT26. The series is described as follows: Antitumor activity against mouse CT26 cells implanted in BALB/c mouse assessed as upregulation of human PD-L1 expression in tumor tissue at 40 mg/kg per day, po administered once daily for 2 weeks by Western blotting analysis. Format: functional, organism-based.
Series [11] concerns CT26. The series is described as follows: Antitumor activity against mouse CT26 cells implanted in BALB/c mouse assessed as downregulation of human PD-L1 expression in tumor tissue at 80 mg/kg per day, po administered once daily for 2 weeks by Western blotting analysis. Format: functional, organism-based.
Series [12] concerns CT26. The series is described as follows: Antitumor activity against mouse CT26 cells implanted in BALB/c mouse assessed as downregulation of human PD-Ll expression in tumor tissue at 160 mg/kg per day, po administered once daily for 2 weeks by Western blotting analysis. Format: functional, organism-based. On the technique in general: A western blot detects proteins with antibodies after separation by electrophoresis.

For series [13], the system named is CT26. The experiment in a line: Antitumor activity against mouse CT26 cells implanted in BALB/c mouse assessed as increase in infiltration of CD8+ T cells level in tumor tissue po administered once daily for 2 weeks by flow cytometry. Type of series: functional, organism-based. The following applies: dose 40-160 mg/kg. For orientation: Flow cytometry measures light scatter and fluorescence of single cells or particles in a stream.

Series [14] relates to CT26. The experiment in a line: Antitumor activity against mouse CT26 cells implanted in BALB/c mouse assessed as inhibition of tumor cell growth in tumor tissue at 40 to 160 mg/kg, po administered once daily for 2 weeks by H and E staining based assay. Format: functional, organism-based. The following applies: dose 40-160 mg/kg.
Series [15] relates to CT26. The series is described as follows: Antitumor immunity activity against mouse CT26 cells implanted in BALB/c mouse assessed as upregulation of CXCL9 mRNA at 160 mg/kg, po administered once daily for 2 weeks by qRT-PCR analysis. Format: functional, organism-based.
Series [16] has as its system CT26. The experiment in a line: Antitumor immunity activity against mouse CT26 cells implanted in BALB/c mouse assessed as upregulation of CXCL10 mRNA at 160 mg/kg, po administered once daily for 2 weeks by qRT-PCR analysis. Format: functional, organism-based.
The subject of series [17] is CT26. The series is described as follows: Antitumor immunity activity against mouse CT26 cells implanted in BALB/c mouse assessed as upregulation of IFN-gamma mRNA at 160 mg/kg, po administered once daily for 2 weeks by qRT-PCR analysis. Format: functional, organism-based. On the technique in general: Quantitative PCR measures a nucleic acid by following its amplification.

Series [18] deals with B16-F10. The experiment in a line: Antitumor activity against po dosed mouse B16-F10 cells implanted in […] mouse assessed as inhibition of tumor volume in presence of PD-L1 antibody administered once daily for 2 weeks. Format: functional, organism-based. Particulars: dose 40-160 mg/kg.
For series [19], the system named is B16-F10. The experiment in a line: Antitumor activity against mouse B16-F10 cells implanted in […] mouse assessed as inhibition of tumor volume at 160 mg/kg, po administered once daily for 2 weeks. Format: functional, organism-based.
Series [20] has as its system B16-F10. The experiment in a line: Antitumor activity against mouse B16-F10 cells implanted in […] mouse assessed as inhibition of tumor volume at 80 mg/kg, po administered once daily for 2 weeks in presence of PD-L1 antibody. Type of series: functional, organism-based.
Series [21] deals with B16-F10. The experiment in a line: Antitumor activity against mouse B16-F10 cells implanted in […] mouse assessed as decrease in human PD-Ll expression in tumor at 80 mg/kg, po administered once daily for 2 weeks in presence of PD-L1 antibody by Western blotting analysis. Type of series: functional, organism-based.
Series [22] concerns B16-F10. The series is described as follows: Antitumor activity against po dosed mouse B16-F10 cells implanted in […] mouse assessed as increase in infiltration of CD8+ T cells level in tumor tissue administered once daily for 2 weeks by flow cytometry. Format: functional, organism-based. The following applies: dose 40-160 mg/kg.
Series [23] has as its system B16-F10. The experiment in a line: Antitumor activity against mouse B16-F10 cells implanted in […] mouse assessed as increase in infiltration of CD8+ T cells level in tumor tissue at 40 to 160 mg/kg,po administered once daily for 2 weeks in presence of PD-L1 antibody by flow cytometry. Format: functional, organism-based. Particulars: dose 40-160 mg/kg.
The subject of series [24] is B16-F10. The series is described as follows: Antitumor immunity activity against mouse B16-F10 cells implanted in […] mouse assessed as increase level of IFN-gamma level in tumor tissue at 40 to 160 mg/kg, po administered once daily for 2 weeks by flow cytometry. Type of series: functional, organism-based. Particulars: dose 40-160 mg/kg.
Series [25] deals with B16-F10. The series is described as follows: Antitumor immunity activity against mouse B16-F10 cells implanted in […] mouse assessed as increase level of IFN-gamma mRNA at 40 to 160 mg/kg, po administered once daily for 2 weeks in presence of PD-L1 antibody by […]. Particulars: dose 40-160 mg/kg. Format: functional, organism-based.
Series [26] concerns B16-F10. The experiment in a line: Antitumor activity against mouse B16-F10 cells implanted in […] mouse assessed as decrease in nucleus to cytoplasm interaction in tumor cells at 40 to 160 mg/kg, po administered once daily for 2 weeks in presence of PD-L1 antibody by H and E staining based assay. Format: functional, organism-based. Particulars: dose 40-160 mg/kg.
Series [27] has as its system B16-F10. The experiment in a line: Antitumor activity against mouse B16-F10 cells implanted in […] mouse assessed as decrease in nucleus to cytoplasm interaction in tumor cells at 40 to 160 mg/kg,po administered once daily for 2 weeks by H and E staining based assay. Type of series: functional, organism-based. Particulars: dose 40-160 mg/kg.

Chain of Programmed cell death protein 1/Programmed cell death 1 ligand 1 (Q15116 whole entry): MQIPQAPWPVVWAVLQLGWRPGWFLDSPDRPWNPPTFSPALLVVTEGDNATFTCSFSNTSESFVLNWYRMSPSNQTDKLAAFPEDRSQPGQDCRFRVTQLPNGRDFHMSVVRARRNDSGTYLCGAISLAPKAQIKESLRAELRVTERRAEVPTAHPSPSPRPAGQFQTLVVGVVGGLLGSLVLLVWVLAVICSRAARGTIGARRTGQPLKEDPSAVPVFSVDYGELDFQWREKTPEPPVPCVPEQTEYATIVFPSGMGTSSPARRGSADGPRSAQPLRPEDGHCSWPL
Chain of Programmed cell death protein 1/Programmed cell death 1 ligand 1 (Q9NZQ7 whole entry): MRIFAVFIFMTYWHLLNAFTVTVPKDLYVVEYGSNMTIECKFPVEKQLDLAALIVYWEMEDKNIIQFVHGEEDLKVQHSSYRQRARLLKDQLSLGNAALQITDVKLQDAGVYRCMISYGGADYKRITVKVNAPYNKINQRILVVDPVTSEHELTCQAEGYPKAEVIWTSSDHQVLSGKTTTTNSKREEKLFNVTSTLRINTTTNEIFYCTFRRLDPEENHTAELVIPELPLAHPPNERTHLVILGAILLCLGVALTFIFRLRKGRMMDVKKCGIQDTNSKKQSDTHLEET
Chain of Programmed cell death 1 ligand 1 (Homo sapiens, UniProt Q9NZQ7) (Q9NZQ7 whole entry): as above
Chain of Programmed cell death 1 ligand 1 (Mus musculus, UniProt Q9EP73) (Q9EP73 whole entry): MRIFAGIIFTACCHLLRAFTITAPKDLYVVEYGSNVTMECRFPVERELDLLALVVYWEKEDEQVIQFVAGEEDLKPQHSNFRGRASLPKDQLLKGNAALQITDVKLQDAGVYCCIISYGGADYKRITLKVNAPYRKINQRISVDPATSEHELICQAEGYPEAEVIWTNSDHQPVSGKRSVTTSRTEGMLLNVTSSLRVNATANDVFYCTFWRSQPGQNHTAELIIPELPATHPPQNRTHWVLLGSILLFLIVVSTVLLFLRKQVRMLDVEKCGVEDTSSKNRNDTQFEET

On to `Cc1c(-c2ccccc2)cccc1-c1nnc(Nc2cccc(CNCCN)c2)o1`, for which, in series [1], the IC50 is 152 µM.

For the compound `COc1ccc(Nc2nnc(-c3ccc([N+](=O)[O-])cc3)o2)cc1`, half-maximal inhibition in series [1] (IC50) required 64.1 µM.

In [1], `Cc1c(-c2ccccc2)cccc1-c1nnc(Nc2cccc(CN3CC[C@@H](O)C3)c2)o1` registered an IC50 of 46.4 µM.

As for `Cc1c(-c2ccccc2)cccc1-c1nnc(Nc2ccc(CNCCO)cc2)o1`, the midpoint of inhibition in series [1], the IC50, lay at 744 µM.

In turn, `Cc1c(-c2ccccc2)cccc1-c1nnc(Nc2cccc(CNCCO)c2)o1` displayed an IC50 in series [1] of 27.8 µM. Besides, the Kd is 25 nM in series [2] and 480 nM in series [3]. The outcome in the series with MDA-MB-231, with CT26 [11], in the series with CT26 [12], in the series on CT26 [15], in the series on CT26 [16] and with CT26 [17] was Active. The outcome in the series with B16-F10 [19], in the series on B16-F10 [20], in the series with B16-F10 [21], in the series with B16-F10 [24], in the series on B16-F10 [25] and with B16-F10 [26] was Active. Besides, the outcome in the series with B16-F10 [27] was Active. The Activity entry with CT26 [4] is “Dose-Dependent Effect”; in series [5], “Non-Toxic”; in series [6], “Non-Toxic”; in the series on CT26 [7], 45%; with CT26 [8], 55%; with CT26 [9], 75%. Also, the Activity result in the series with CT26 [13], with CT26 [14], in the series on B16-F10 [18], in the series with B16-F10 [22] and in the series with B16-F10 [23] was “Dose-Dependent Effect” in each case. Further, the outcome with CT26 [10] was inactive.

On to `CC(=O)NCCNCc1cccc(Nc2nnc(-c3cccc(-c4ccccc4)c3C)o2)c1`, for which, in [1], the IC50 came to 34.1 µM.

Compound `Cc1c(-c2ccccc2)cccc1-c1nnc(Nc2cccc(CN(C)CCO)c2)o1` yielded an IC50 in series [1] of 67.1 µM.

For `Cc1c(-c2ccccc2)cccc1-c1nnc(Nc2cccc(CNCCCO)c2)o1`, in [1], half-maximal inhibition (IC50) required 55.9 µM.

As to `Cc1c(-c2ccccc2)cccc1-c1nnc(Nc2ccc(CNCC(=O)O)cc2)o1`, inhibition in series [1] was half-maximal at 516 µM (IC50).

In the case of `COc1ccc(Nc2nnc(-c3ccc(-c4ccccc4)c(C)c3)o2)cc1`, the IC50 in [1] is > 100 µM.

In the case of `Cc1c(-c2ccccc2)cccc1-c1nnc(Nc2cccc(CNCC(=O)O)c2)o1`, in series [1], the midpoint of inhibition, the IC50, lay at 24.5 µM.

As for `CC(=O)NCCNCc1ccc(Nc2nnc(-c3cccc(-c4ccccc4)c3C)o2)cc1`, the IC50 in [1] was found to be 1800 µM.

`COc1ccc(Nc2nnc(-c3cccc(-c4ccccc4)c3C)o2)cc1`: the IC50 in series [1] came to 2.64 µM.

The compound `Cc1c(-c2ccccc2)cccc1-c1nnc(Nc2cccc(CN3CCOCC3)c2)o1` yielded an IC50 in series [1] of 64.1 µM.

Consider `Cc1c(-c2ccccc2)cccc1-c1nnc(Nc2cccc(CN[C@H](C)CO)c2)o1`, for which the IC50 in series [1] was 70 µM.

As a reminder, the IC50 is the concentration needed to halve the response being measured. In general, Kd refers to a measure of binding affinity in units of concentration.
